Test results published in patent US8853246B2 (Dow AgroSciences LLC, priority 2009, dated 2014).
Read-outs that look alike come from different tables or passages of the source.

Assays:
[1] = tested on: Sweetpotato Whitefly-Crawler (Bemisia Tabaci); test: Insecticidal test for sweetpotato whitefly-crawler in foliar spray assay (col. BEMITA); assay type: in vivo; settings: for pest or weed control at 200 ppm: Bemisia tabaci, read-out: BEMITA 200 ppm (Corrected % Control, rating)
Protocol: (§1) The compounds were tested against cotton aphid, green peach aphid, and sweet potato whitefly using procedures described in the following examples and reported in Table 2.
(§2) In each case of Table 2, the rating scale is as follows at 200 ppm.
Insecticidal Test for Sweetpotato Whitefly-Crawler (Bemisia Tabaci) in Foliar Spray Assay
Cotton plants grown in 3-inch pots, with 1 small (3-5 cm) true leaf, were used as test substrate. The plants were placed in a room with whitefly adults. Adults were allowed to deposit eggs for 2-3 days. After a 2-3 day egg-laying period, plants were taken from the adult whitefly room. Adults were blown off leaves using a hand-held Devilbiss sprayer (23 psi). Plants with egg infestation (100-300 eggs per plant) were placed in a holding room for 5-6 days at 82° F. and 50% RH for egg hatch and crawler stage to develop. Four cotton plants were used for each treatment. Compounds (2 mg) were dissolved in 1 mL of acetone solvent, forming stock solutions of 2000 ppm. The stock solutions were diluted 10× with 0.025% Tween 20 in H2O to obtain a test solution at 200 ppm. A hand-held Devilbiss sprayer was used for spraying a solution to both sides of cotton leaf until runoff. Reference plants (solvent check) were sprayed with the diluent only. Treated plants were held in a holding room for 8-9 days at approximately 82° F. and 50% RH prior to grading. Evaluation was conducted by counting the number of live nymphs per plant under a microscope. Insecticidal activity was measured by using Abbott's correction formula and presented in Table 2 (see col. “BEMITA”): Corrected % Control=100*(X−Y)/X • where X=No. of live nymphs on solvent check plants • Y=No. of live nymphs on treated plants Pesticidally Acceptable Acid Addition Salts, Salt Derivatives, Solvates, Ester Derivatives, Polymorphs, Isotopes and Radionuclides

[2] = tested on: Green Peach Aphid (Myzus Persicae); test: Insecticidal test for green peach aphid in foliar spray assay (col. MYZUPE); assay type: in vivo; settings: for pest or weed control at 200 ppm: Myzus persicae, 72 h, read-out: MYZUPE 200 ppm (Corrected % Control, rating)
Protocol: as §1, §2
Insecticidal Test for Green Peach Aphid (Myzus Persicae) in Foliar Spray Assay
Cabbage seedlings grown in 3-inch pots, with 2-3 small (3-5 cm) true leaves, were used as test substrate. The seedlings were infested with 20-50 green peach aphids (wingless adult and nymph) one day prior to chemical application. Four pots with individual seedlings were used for each treatment. Compounds (2 mg) were dissolved in 2 mL of acetone/methanol (1:1) solvent, forming stock solutions of 1000 ppm. The stock solutions were diluted 5× with 0.025% Tween 20 in H2O to obtain a test solution at 200 ppm. A hand-held Devilbiss sprayer was used for spraying a solution to both sides of cabbage leaves until runoff. Reference plants (solvent check) were sprayed with the diluent only. Treated plants were held in a holding room for three days at approximately 25° C. and 40% relative humidity (RH) prior to grading. Evaluation was conducted by counting the number of live aphids per plant under a microscope. Corrected % Control=100*(X−Y)/X • where X=No. of live aphids on solvent check plants • Y=No. of live aphids on treated plants

SMILES | pest or weed control at 200 ppm ([1]; Abbott's correction formula) [%] | pest or weed control at 200 ppm ([2]; Abbott's correction formula) [%] | pest or weed control at 200 ppm ([1]; sweetpotato whitefly-crawler) [%] | pest or weed control at 200 ppm ([2]; green peach aphid) [%] | other results
CSCCC(=O)N(C)c1sc(-c2cncc(Cl)c2)nc1Cl [Compound 500] | 80 to 100 | 80 to 100 | – | – | –
CC(C(=O)N(C)CC(=O)N(C)c1sc(-c2cccnc2)nc1Cl)n1cccn1 (centres unmarked) [Compound 431] | < 80 | 80 to 100 | – | – | –
Cc1nc(-c2cncc(F)c2)sc1N(C)C(=O)C1CCCNC1 (centres unmarked) [Compound 581] | < 80 | < 80 | – | – | –
CCN(C(=O)C(C)C)c1sc(-c2cccnc2)nc1-c1ccccc1 [Compound 63] | – | – | < 80 | < 80 | –
CSCCNC(=S)Nc1sc(-c2cncc(F)c2)nc1Cl [Compound 450] | 80 to 100 | 80 to 100 | – | – | –
Cc1nc(-c2cccnc2)sc1N(C)C(=O)[C@@H]1CCCN1C(=O)OC(C)(C)C [Compound 292] | – | – | 80 to 100 | < 80 | –
Cc1nc(-c2cccnc2)sc1N(CC1CC1(F)F)C(=O)OC(C)(C)C (centres unmarked) [Compound 461] | < 80 | 80 to 100 | – | – | –
CSCC(C)C(=O)Nc1sc(-c2cccnc2)nc1C(F)(F)F (centres unmarked) [Compound 134] | – | – | < 80 | 80 to 100 | –
Cc1nc(-c2cncnc2)sc1N(C)C(=O)OC(C)(C)C [Compound 11, Methyl-(4-methyl-2-pyrimidin-5-yl-thiazol-5-yl)-carbamic acid tert-butyl ester] | – | – | – | < 80 | –
COC(=O)/C=C/CN(C(=O)C(C)CSC)c1sc(-c2cccnc2)nc1C (centres unmarked) [Compound 464] | < 80 | 80 to 100 | – | – | –
CCN(C(=O)C(C)(C)CS(C)(=O)=O)c1sc(-c2cncc(F)c2)nc1C [Compound 261] | – | – | – | – | BEMITA 200 ppm (Corrected % Control, rating) ([1]; sweetpotato whitefly-crawler): A (80-100); MYZUPE 200 ppm (Corrected % Control, rating) ([2]; green peach aphid): A (80-100)
CCOC(=O)c1cncc(-c2nc(C)c(N(C(=O)OC(C)(C)C)C(=O)C(C)CSC)s2)c1 (centres unmarked) [Compound 155] | – | – | < 80 | < 80 | –
COCCN(C(=O)C(C)CSC)c1sc(-c2cccnc2)nc1C (centres unmarked) [Compound 465] | < 80 | 80 to 100 | – | – | –
CCO[C@@H]1[C@@H](OC)[C@H](C)OC(OC(=O)Nc2sc(-c3cccnc3)nc2C)[C@@H]1OC (mixture of isomers) [Compound 182] | – | – | < 80 | 80 to 100 | –
CN(C(=O)c1ccns1)c1sc(-c2cccnc2)nc1Cl [Compound 346] | – | – | – | – | BEMITA 200 ppm (Corrected % Control, rating) ([1]; sweetpotato whitefly-crawler): A (80-100); MYZUPE 200 ppm (Corrected % Control, rating) ([2]; green peach aphid): B (Less than 80)
C=C(CC)C(=O)N(CC)c1sc(-c2cccnc2)nc1Cl [Compound 534] | 80 to 100 | < 80 | – | – | –
CSCC(C)C(=O)N(C(=O)C(C)CSC)c1sc(-c2cccnc2)nc1C (centres unmarked) [Compound 173] | – | – | 80 to 100 | 80 to 100 | –
Cc1nc(-c2cccnc2)sc1N(C)C(=O)CC[S+](C)[O-] (centres unmarked) [Compound 90] | – | – | 80 to 100 | 80 to 100 | –
CN(C(=O)C(F)(F)F)c1cnc(-c2cccnc2)s1 [Compound 2, 2,2,2-Trifluoro-N-methyl-N-(2-pyridin-3-yl-thiazol-5-yl)-acetamide] | – | – | < 80 | < 80 | –
Cc1nc(-c2cccnc2)sc1N(C(=O)C(C)C)C(=O)C(C)C [Compound 21, N-isobutyryl-N-(4-methyl-2-pyridin-3-yl-thiazol-5-yl)-isobutyramide] | – | – | 80 to 100 | 80 to 100 | –
CCN(C(=O)CC(C)SC)c1sc(-c2cccnc2)nc1Br (centres unmarked) [Compound 480] | 80 to 100 | 80 to 100 | – | – | –
Cc1nc(-c2cccnc2)sc1N(C)C(=O)C(C)(C)CS(C)(=O)=O [Compound 97] | – | – | 80 to 100 | 80 to 100 | –
Cc1nc(-c2cccnc2)sc1N(C)C(=O)c1cscn1 [Compound 365] | – | – | < 80 | 80 to 100 | –

SMILES | pest or weed control at 200 ppm ([1]; Abbott's correction formula) [%] | pest or weed control at 200 ppm ([2]; Abbott's correction formula) [%] | pest or weed control at 200 ppm ([1]; sweetpotato whitefly-crawler) [%] | pest or weed control at 200 ppm ([2]; green peach aphid) [%] | other results
CCC(C[S+](C)[O-])C(=O)N(CC)c1sc(-c2cccnc2)nc1Cl (centres unmarked) [Compound 559] | 80 to 100 | 80 to 100 | – | – | –
CCc1nc(-c2cccnc2)sc1N(C)C(=O)CCSC [Compound 47] | – | – | 80 to 100 | 80 to 100 | –
CN(C(=O)c1ccc([S+](C)[O-])cc1)c1sc(-c2cccnc2)nc1Cl (centres unmarked) [Compound 403] | – | – | – | – | BEMITA 200 ppm (Corrected % Control, rating) ([1]; sweetpotato whitefly-crawler): B (Less than 80); MYZUPE 200 ppm (Corrected % Control, rating) ([2]; green peach aphid): A (80-100)
CSCC(C)C(=O)N(C)c1sc(-c2cncc(F)c2)nc1C (centres unmarked) [Compound 40] | – | – | 80 to 100 | 80 to 100 | –
CCN(C(=O)C(C)(C)CSC)c1sc(-c2cccnc2)nc1C [Compound 237] | – | – | 80 to 100 | 80 to 100 | –
Cc1nc(-c2cccnc2)sc1N(C)C(=O)OC(C)(C)C(F)(F)F [Compound 492] | 80 to 100 | < 80 | – | – | –
Cc1nc(-c2cccnc2)sc1N(C)C(=O)[C@H](Cc1ccccc1)NC(=O)OC(C)(C)C [Compound 280] | – | – | < 80 | < 80 | –
CCN(C(=O)Cc1ccc(C(C)=O)s1)c1sc(-c2cccnc2)nc1Cl [Compound 557] | < 80 | < 80 | – | – | –
CCN(C(=O)c1ccccn1)c1sc(-c2cccnc2)nc1Cl [Compound 574] | < 80 | 80 to 100 | – | – | –
Cc1nc(-c2cccnc2)sc1N(C)C(=O)[C@H](CSCc1ccccc1)NC(=O)OC(C)(C)C [Compound 290] | – | – | < 80 | < 80 | –
CS[C@H]1CC1C(=O)N(C)c1sc(-c2cncc(F)c2)nc1Cl (mixture of isomers) [Compound 445] | 80 to 100 | 80 to 100 | – | – | –
CCN(C(=O)C1C(C=C(Cl)Cl)C1(C)C)c1sc(-c2cccnc2)nc1Cl (centres unmarked) [Compound 552] | < 80 | 80 to 100 | – | – | –
CCN(C(=O)CC[S+](C)[O-])c1sc(-c2cccnc2)nc1Cl (centres unmarked) [Compound 314] | – | – | 80 to 100 | 80 to 100 | –
CSCC(C)(C)C(=O)Nc1sc(-c2ccc(F)nc2)nc1C [Compound 20, N-[2-(6-fluoropyridin-3-yl)-4-methyl-thiazol-5-yl]-2,2-dimethyl-3-methylsulfanyl-propionamide] | – | – | 80 to 100 | 80 to 100 | –
CC(C)C(=O)N(C)c1sc(-c2cccnc2)nc1Cl [Compound 231] | – | – | 80 to 100 | 80 to 100 | –
CN(C(=O)C(F)(F)F)c1sc(-c2cccnc2)nc1Cl [Compound 6, N-(4-Chloro-2-pyridin-3-yl-thiazol-5-yl)-2,2,2-trifluoro-N-methyl-acetamide] | – | – | < 80 | < 80 | –
CCN(C(=O)CCSC)c1sc(-c2cccnc2)nc1C [Compound 236] | – | – | 80 to 100 | 80 to 100 | –
Cc1nc(-c2cccnc2)sc1N(C)C(=O)C(C)N(C)C(=O)OC(C)(C)C (centres unmarked) [Compound 294] | – | – | < 80 | < 80 | –
Cc1nc(-c2cncnc2)sc1NC(=O)OC(C)(C)C [Compound 8, (4-Methyl-2-pyrimidin-5-yl-thiazol-5-yl)-carbamic acid tert-butyl ester] | – | – | – | 80 to 100 | –
Cc1nc(-c2cccnc2)sc1N(C)C(=O)C1CCN1C(=O)OC(C)(C)C (centres unmarked) [Compound 338] | – | – | – | – | BEMITA 200 ppm (Corrected % Control, rating) ([1]; sweetpotato whitefly-crawler): A (80-100)
Cc1nc(-c2cccnc2)sc1N(C)C(=O)C(NC(=O)OC(C)(C)C)C(C)C (centres unmarked) [Compound 311] | – | – | – | 80 to 100 | –
CSCC(C)C(=O)N(C)c1sc(-c2cnc(Cl)c(F)c2)nc1Cl (centres unmarked) [Compound 473] | < 80 | – | – | – | –
Cc1nc(-c2cccnc2)sc1N(C)C(=O)[C@@H](COCc1ccccc1)NC(=O)OC(C)(C)C [Compound 310] | – | – | – | < 80 | –
